According to PubChem BioAssay AID1259407 (Chemical Carcinogenesis Research Information System (CCRIS), 2018):
Active and inactive are the calls of the source. No rule for the calls is given here.

System: CCRIS mutagenicity, Ames/micronucleus/aberration tests
Assay: CCRIS mutagenicity studies
[1] = Test System: AMES SALMONELLA TYPHIMURIUM, Strain/Indicator: TA98, Metabolic Activation: NONE, Method: PREINCUBATION
[2] = Test System: AMES SALMONELLA TYPHIMURIUM, Strain/Indicator: TA100, Metabolic Activation: NONE, Method: PREINCUBATION
[3] = Test System: AMES SALMONELLA TYPHIMURIUM, Strain/Indicator: TA98, Metabolic Activation: NONE, Method: STANDARD PLATE

Question: `CCCCOCCOC(=O)COc1ccc(Cl)cc1Cl` was tested. Which mutagenic call [1] did it give?
Answer: The mutagenic call was “inactive; negative”.

Question: And the mutagenic call (Test System: AMES SALMONELLA TYPHIMURIUM, Strain/Indicator: TA98, Metabolic Activation: RAT LIVER S-9, AROCLOR 1254, 10%, Method: PREINCUBATION)?
Answer: The mutagenic call was “inactive; negative”.

Question: What about the mutagenic call [2] of the same compound?
Answer: Its mutagenic call is “inactive; negative”.

Question: And the mutagenic call (Test System: AMES SALMONELLA TYPHIMURIUM, Strain/Indicator: TA100, Metabolic Activation: RAT LIVER S-9, AROCLOR 1254, 10%, Method: PREINCUBATION)?
Answer: The mutagenic call was “inactive; negative”.

Question: What about the mutagenic call (Test System: AMES SALMONELLA TYPHIMURIUM, Strain/Indicator: TA1535, Metabolic Activation: NONE, Method: PREINCUBATION) of the same compound?
Answer: Its mutagenic call is “inactive; negative”.

Question: And the mutagenic call (Test System: AMES SALMONELLA TYPHIMURIUM, Strain/Indicator: TA1535, Metabolic Activation: RAT LIVER S-9, AROCLOR 1254, 10%, Method: PREINCUBATION)?
Answer: The mutagenic call was “inactive; negative”.

Question: And the mutagenic call (Test System: AMES SALMONELLA TYPHIMURIUM, Strain/Indicator: TA1537, Metabolic Activation: NONE, Method: PREINCUBATION)?
Answer: Its mutagenic call is “inactive; negative”.

Question: And the mutagenic call (Test System: AMES SALMONELLA TYPHIMURIUM, Strain/Indicator: TA1537, Metabolic Activation: RAT LIVER S-9, AROCLOR 1254, 10%, Method: PREINCUBATION)?
Answer: The mutagenic call was “inactive; negative”.

Question: And the mutagenic call (Test System: UDS RAT HEPATOCYTES, Strain/Indicator: THYMIDINE INCORPORATION, Metabolic Activation: NONE, Method: AUTORADIOGRAPHY)?
Answer: Its mutagenic call is “inactive; negative”.

Question: Which mutagenic call [1] does the source give for `CCN(CC)CCOc1ccc(C(=C(Cl)c2ccccc2)c2ccccc2)cc1` here?
Answer: Its mutagenic call is “inactive; negative”.

Question: What about the mutagenic call (Test System: AMES SALMONELLA TYPHIMURIUM, Strain/Indicator: TA98, Metabolic Activation: RAT LIVER S-9, 3-METHYLCHOLANTHRENE, Method: PREINCUBATION) of the same compound?
Answer: The mutagenic call was “active; positive”.

Question: And the mutagenic call (Test System: AMES SALMONELLA TYPHIMURIUM, Strain/Indicator: TA98, Metabolic Activation: RAT LIVER S-9, AROCLOR 1254, Method: PREINCUBATION)?
Answer: Its mutagenic call is “active; positive”.

Question: What about the mutagenic call (Test System: AMES SALMONELLA TYPHIMURIUM, Strain/Indicator: TA98, Metabolic Activation: RAT LIVER S-9, PHENOBARBITAL, Method: PREINCUBATION) of the same compound?
Answer: Its mutagenic call is “active; positive”.

Question: What about the mutagenic call (Test System: AMES SALMONELLA TYPHIMURIUM, Strain/Indicator: TA98, Metabolic Activation: RAT LIVER S-9, STREPTOZOCINE, Method: PREINCUBATION) of the same compound?
Answer: Its mutagenic call is “active; positive”.

Question: How did the mutagenic call [1] turn out when `O=[N+]([O-])c1ccc(-c2ccccc2)c([N+](=O)[O-])c1` was run?
Answer: Its mutagenic call is “active; positive”.

Question: And the mutagenic call (Test System: AMES SALMONELLA TYPHIMURIUM, Strain/Indicator: TA98, Metabolic Activation: RAT, LIVER, S-9, PCB (10%), Method: PREINCUBATION)?
Answer: The mutagenic call was “active; positive”.

Question: How did the mutagenic call (Test System: AMES SALMONELLA TYPHIMURIUM, Strain/Indicator: TA100, Metabolic Activation: RAT, KIDNEY, S-9, AROCLOR 1254, Method: STANDARD PLATE) turn out when `CC(=O)N[C@@H](CS/C(F)=C(\F)C(F)(F)F)C(=O)O` was run?
Answer: The mutagenic call was “inactive; negative”.

Question: With `O=C1C=Cc2ccc3c(ccc4ccccc43)c2C1=O` as the compound, how does the mutagenic call [3] read?
Answer: Its mutagenic call is “inactive; negative”.

Question: What about the mutagenic call (Test System: AMES SALMONELLA TYPHIMURIUM, Strain/Indicator: TA100, Metabolic Activation: RAT, LIVER, S-9, AROCLOR 1254, Method: STANDARD PLATE) of the same compound?
Answer: Its mutagenic call is “active; positive”.

Question: What does the source list for `Nc1cccc(N)c1C(=O)O`?
Answer: mutagenic call [1]: inactive; negative; mutagenic call (Test System: AMES SALMONELLA TYPHIMURIUM, Strain/Indicator: TA98, Metabolic Activation: RAT, LIVER, S-9, PHENOBARBITAL AND 5,6-BENZOFLAVONE, Method: PREINCUBATION): active; positive; mutagenic call [2]: inactive; negative; mutagenic call (Test System: AMES SALMONELLA TYPHIMURIUM, Strain/Indicator: TA100, Metabolic Activation: RAT, LIVER, S-9, PHENOBARBITAL AND 5,6-BENZOFLAVONE, Method: PREINCUBATION): inactive; negative

Question: Which mutagenic call (Test System: AMES SALMONELLA TYPHIMURIUM, Strain/Indicator: TA97A, Metabolic Activation: NONE, Method: PREINCUBATION) does the source give for `O=C1C(=O)c2ccccc2-c2ccccc21` here?
Answer: The mutagenic call was “inactive; negative”.

Question: What about the mutagenic call [1] of the same compound?
Answer: Its mutagenic call is “inactive; negative”.

Question: What about the mutagenic call [2] of the same compound?
Answer: Its mutagenic call is “inactive; negative”.

Question: What about the mutagenic call (Test System: AMES SALMONELLA TYPHIMURIUM, Strain/Indicator: TA102, Metabolic Activation: NONE, Method: PREINCUBATION) of the same compound?
Answer: Its mutagenic call is “inactive; negative”.

Question: What about the mutagenic call (Test System: AMES SALMONELLA TYPHIMURIUM, Strain/Indicator: TA104, Metabolic Activation: NONE, Method: PREINCUBATION) of the same compound?
Answer: Its mutagenic call is “inactive; negative”.

Question: Which results are given for `COc1ccc2c(OC)c3ccoc3nc2c1OC`?
Answer: mutagenic call (Test System: AMES SALMONELLA TYPHIMURIUM, Strain/Indicator: TA98, Metabolic Activation: RAT, LIVER, MICROSOMES, PHENOBARBITAL, Method: STANDARD PLATE): active; positive; mutagenic call (Test System: AMES SALMONELLA TYPHIMURIUM, Strain/Indicator: TA98, Metabolic Activation: RAT, LIVER, S-9, PHENOBARBITAL, Method: STANDARD PLATE): active; positive; mutagenic call (Test System: AMES SALMONELLA TYPHIMURIUM, Strain/Indicator: TA100, Metabolic Activation: RAT, LIVER, MICROSOMES, PHENOBARBITAL, Method: STANDARD PLATE): active; positive; mutagenic call (Test System: AMES SALMONELLA TYPHIMURIUM, Strain/Indicator: TA100, Metabolic Activation: RAT, LIVER, S-9, PHENOBARBITAL, Method: STANDARD PLATE): active; positive; mutagenic call (Test System: AMES SALMONELLA TYPHIMURIUM, Strain/Indicator: TA1535, Metabolic Activation: RAT, LIVER, MICROSOMES, PHENOBARBITAL, Method: STANDARD PLATE): inactive; negative; mutagenic call (Test System: AMES SALMONELLA TYPHIMURIUM, Strain/Indicator: TA1538, Metabolic Activation: RAT, LIVER, MICROSOMES, PHENOBARBITAL, Method: STANDARD PLATE): inactive; negative

Question: Which results are given for `c1ccc2c(c1)CC[C@@H]1CCCC[C@@H]21`?
Answer: mutagenic call (Test System: AMES SALMONELLA TYPHIMURIUM, Strain/Indicator: TA98, Metabolic Activation: RAT, LIVER, S-9, SODIUM PHENOBARBITAL AND BETA-NAPHTHOFLAVONE, Method: STANDARD PLATE): inactive; negative; mutagenic call (Test System: AMES SALMONELLA TYPHIMURIUM, Strain/Indicator: TA100, Metabolic Activation: RAT, LIVER, S-9, SODIUM PHEOBARBITAL AND BETA-NAPHTHOFLAVONE, Method: STANDARD PLATE): inactive; negative

Question: Which mutagenic call (Test System: AMES SALMONELLA TYPHIMURIUM, Strain/Indicator: TA98, Metabolic Activation: HAMSTER, LIVER, S-9, AROCLOR 1254 (10%), Method: STANDARD PLATE) does the source give for `CCN(CC)c1ccc2nc3ccc(=[N+](CC)CC)cc-3oc2c1` here?
Answer: Its mutagenic call is “inactive; negative”.

Question: And the mutagenic call [3]?
Answer: Its mutagenic call is “active; positive”.

Question: And the mutagenic call (Test System: AMES SALMONELLA TYPHIMURIUM, Strain/Indicator: TA98, Metabolic Activation: RAT, LIVER, S-9, AROCLOR 1254 (10%), Method: STANDARD PLATE)?
Answer: The mutagenic call was “inactive; negative”.

Question: What about the mutagenic call (Test System: AMES SALMONELLA TYPHIMURIUM, Strain/Indicator: TA100, Metabolic Activation: HAMSTER, LIVER, S-9, AROCLOR 1254 (10%), Method: STANDARD PLATE) of the same compound?
Answer: The mutagenic call was “inactive; negative”.

Question: And the mutagenic call (Test System: AMES SALMONELLA TYPHIMURIUM, Strain/Indicator: TA100, Metabolic Activation: NONE, Method: STANDARD PLATE)?
Answer: Its mutagenic call is “inactive; negative”.

Question: What about the mutagenic call (Test System: AMES SALMONELLA TYPHIMURIUM, Strain/Indicator: TA100, Metabolic Activation: RAT, LIVER, S-9, AROCLOR 1254 (10%), Method: STANDARD PLATE) of the same compound?
Answer: Its mutagenic call is “inactive; negative”.

Question: What about the mutagenic call (Test System: Ames Salmonella typhimurium, Strain/Indicator: TA98, Metabolic Activation: None, Method: Preincubation) of the same compound?
Answer: The mutagenic call was “inactive; negative”.

Question: What about the mutagenic call (Test System: Ames Salmonella typhimurium, Strain/Indicator: TA98, Metabolic Activation: Rat, Liver, S-9, Aroclor 1254, Method: Preincubation) of the same compound?
Answer: Its mutagenic call is “inactive; negative”.

Question: And the mutagenic call (Test System: Ames Salmonella typhimurium, Strain/Indicator: TA100, Metabolic Activation: None, Method: Preincubation)?
Answer: Its mutagenic call is “inactive; negative”.

Question: And the mutagenic call (Test System: Ames Salmonella typhimurium, Strain/Indicator: TA100, Metabolic Activation: Rat, Liver, S-9, Aroclor 1254, Method: Preincubation)?
Answer: Its mutagenic call is “inactive; negative”.

Question: And the mutagenic call (Test System: Ames Salmonella typhimurium, Strain/Indicator: TA102, Metabolic Activation: None, Method: Preincubation)?
Answer: The mutagenic call was “inactive; negative”.

Question: What about the mutagenic call (Test System: Ames Salmonella typhimurium, Strain/Indicator: TA102, Metabolic Activation: Rat, Liver, S-9, Aroclor 1254, Method: Preincubation) of the same compound?
Answer: The mutagenic call was “inactive; negative”.

Question: What about the mutagenic call (Test System: Ames Salmonella typhimurium, Strain/Indicator: TA1535, Metabolic Activation: None, Method: Preincubation) of the same compound?
Answer: Its mutagenic call is “inactive; negative”.

Question: What about the mutagenic call (Test System: Ames Salmonella typhimurium, Strain/Indicator: TA1535, Metabolic Activation: Rat, Liver, S-9, Aroclor 1254, Method: Preincubation) of the same compound?
Answer: The mutagenic call was “inactive; negative”.

Question: What about the mutagenic call (Test System: MOUSE LYMPHOMA, Strain/Indicator: L5178Y (TK+/TK-), Metabolic Activation: NONE, Method: SUSPENSION/PLATE) of the same compound?
Answer: The mutagenic call was “active; positive. reevaluation of results: positive”.

Question: What about the mutagenic call (Test System: MOUSE LYMPHOMA, Strain/Indicator: L5178Y (TK+/TK-), Metabolic Activation: RAT, LIVER, S-9, AROCLOR 1254, Method: SUSPENSION/PLATE) of the same compound?
Answer: Its mutagenic call is “active; positive. reevaluation of results: positive”.
